# Experimental data: US12144791B2, “KRAS agonists, pharmaceutical compositions, and uses in managing cancer” (Emory University, priority 2019, dated 2024)
# Entries after “also recorded” stand apart in the source; their conditions may differ.
# How the values were obtained:
# [1] = tested on: NSCLC cells; assay: Colony formation assay; assay type: cell-based, human; conditions: 10 μM, 10 days; A549, H358, H157, Calu-1, H1972 vs H292, HCC827, H1975, H322
# [2] = tested on: A549 xenografts bearing mutant KRAS; assay: A549 lung cancer xenografts bearing KRAS mutation (G12S); assay type: in vivo
# Protocol: Tumor volume was measured once every 2 days (left panel). Tumor volumes of 6 individual mice in each group were compared on day 28 (right panel). After 28 days, the mice were sacrificed, and the tumors were removed and analyzed.
# Expression levels of active caspase-3, cleaved PARP, Beclin-1 and LC3-II in tumor tissues were analyzed by Western blot.
# To test the potency of KRA-533 in vivo, lung cancer xenografts derived from A549 cells bearing KRAS mutation (G12S) were treated with increasing doses (0, 7.5, 15, and 30 mg/kg/day) of KRA-533 i.p. for 28 days. […] To assess whether KRA-533 induced suppression of tumor growth via apoptosis and autophagy in vivo, representative samples from harvested tumor tissues were analyzed by immunohistochemistry (IHC) for active caspase-3 or LC3-II.
# [3] = tested on: NSCLC cells; assay: MTS Cell Proliferation Colorimetric Assay; assay type: cell-based, human; conditions: 48 h
# Description: (§1) A library containing small molecules from the National Cancer Institute (NCI) was employed to dock the GTP/GDP binding pocket of KRAS (PDB ID code: 4EPT) using the University of California, San Francisco (UCSF) DOCK 6.1 program suite. The small molecules were ranked according to their energy scores. Top 500 small molecules with predicted binding energies were selected for screening of cytotoxicity in human lung cancer cells by sulforhodamine B (SRB) assay. […] This lead compound was named KRAS agonist-533 (KRA-533) (FIG. 1A). To test whether KRA-533 regulates KRAS activity in lung cancer cells, human lung cancer cell lines with or without KRAS mutation were treated with KRA-533 (10 μM) for 48 h. […] Cell proliferation was also measured following treatment of cells for 48 h using MTS Cell Proliferation Colorimetric Assay Kit.
# [4] = target: T1, GFP-tagged KRAS WT (Homo sapiens, UniProt P01116); assay: Raf-1-RBD pull-down of exogenous GFP-tagged KRAS WT in A549 cells; assay type: cell-based; conditions: 15 μM, 48 h
# T1 construct: expressed in transfected cells; host or cells: A549
# Protocol: The GFP-tagged exogenous KRAS-GTP (GFP-KRAS-GTP) was analyzed by Western blot using anti-GFP antibody.
# (§2) To further test this intracellularly, GFP-tagged WT, S17A, K117A and AA KRAS mutants were exogenously transfected into A549 cells. […] Activities of exogenous GFP-tagged WT and KRAS mutants were analyzed by Western blot using GFP antibody.
# [5] = Single-dose maximum tolerated dose (MTD); assay type: in vivo
# Protocol: To define the appropriate doses of KRA-533 for in vivo experimentation, standard single-dose maximum tolerated dose (MTD) was determined. Nu/Nu nude mice were treated with a single dose of 150, 300 or 400 mg/kg i.p., followed by toxicity observations. […] Based on these findings, mice might die mainly from liver and kidney damage at a single 400 mg/kg dose. Thus, the single dose MTD of KRA-533 ranges from 300 to 400 mg/kg. One tenth of single-dose MTD was contemplated (˜30-40 mg/kg) for continuous treatment, e.g., between 10 and 30 mg/kg/day.
# [6] = tested on: human lung cancer cells; assay: Screening of cytotoxicity by sulforhodamine B (SRB) assay; assay type: cell-based; conditions: among top 500 docked NCI small molecules
# Description: as §1
# [7] = tested on: G12D mutant KRAS-driven lung cancer; assay: Genetically engineered LSL-KRASG12D mouse lung cancer model; assay type: in vivo
# Description: Tumor numbers were counted under the microscope and tumor area was quantified using modular imaging software.
# KRAS mutations are common genetic alterations in NSCLC and contribute to the resistance of lung cancer to conventional therapy. To test the potency of KRA-533 in mutant KRAS-driven lung cancer, lox-stop-lox (LSL)-KRASG12D mice were generated. By engineering LoxP DNA elements into the mouse genome that surround a synthetic ‘stop’ element (lox-stop-lox) inserted in front of mutant KRAS G12D, one can ‘turn-on’ mutant KRAS G12D with delivery of Cre recombinase. To control the expression of KRAS G12D, a LSL cassette was engineered into the first intron of the KRAS gene. The LSL cassette consists of transcriptional and translational stop elements flanked by LoxP sites that prevent the expression of the mutant allele until the stop elements are removed by the activity of Cre recombinase. To produce KRAS G12D mutant-driven lung cancer, alleles were induced in mouse lung using intranasal administration of a lentiviral Cre recombinase. Primary lung tumors developed around 12 weeks post-inoculation.
# To assess whether KRA-533 has antitumor activity against G12D mutant KRAS-driven lung cancer in genetically engineered mouse models, KRA-533 (20 mg/kg/d) or vehicle control was administered i.p. starting at 10 weeks post AdeCre delivery. After treatment for 3 months, mice were euthanized for analysis of tumor burden. […] There were 3 deaths out of 8 mice in the control group versus 1 death out of 8 mice in the KRA-533 treatment group in four months before euthanization.
# [8] = target: KRAS WT (Homo sapiens, UniProt P01116); assay: Thermal shift assay, purified KRAS WT; assay type: binding; conditions: increasing concentrations
# Protocol: Melting temperature (Tm) values of DMSO Ctrl and 15 μM of KRA-533 are shown.
# Melting temperature (Tm) values of DMSO control and 15 μM KRA-533 are shown.
# To test whether KRA-533 directly binds to KRAS, a thermal shift assay was employed. […] To further assess whether KRA-533 activates KRAS directly, an in vitro cell-free GDP-GTP exchange experiment was carried out. Purified WT, G12C, G12D or G13D mutant KRAS proteins were incubated with purified GEF (RASGRP1) and GAP (RASA1) proteins in reaction buffer containing [γ-35S]-GTP in the absence or presence of increasing concentrations of KRA-533 at 25° C. for 60 min. KRAS activity was quantified by liquid scintillation counting. […] These findings indicate that KRA-533 not only activates WT KRAS but also has the capacity to further enhance KRAS activity of mutant KRAS.
# as §2
# [9] = 0, 7.5, 15, and 30 mg/kg/day i.p. for 28 days
# Sequence of KRAS WT (P01116 1-188 isoform P01116-2): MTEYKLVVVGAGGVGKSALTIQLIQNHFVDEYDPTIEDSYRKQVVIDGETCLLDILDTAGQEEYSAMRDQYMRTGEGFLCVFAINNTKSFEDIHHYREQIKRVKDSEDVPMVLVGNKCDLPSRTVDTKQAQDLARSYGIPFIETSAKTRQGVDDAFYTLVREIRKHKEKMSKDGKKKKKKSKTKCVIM
# T1 sequence (P01116 1-188 isoform P01116-2): as above
smiles,measurement,setting,value
"O=C(CBr)NCCCCc1ccc(C(=O)O)cc1 [KRA-533, 4-(4-(2-bromoacetamido)butyl)benzoic acid]","cell growth suppression (colony formation), KRAS mutant versus non-mutant cell lines",[1],relatively more sensitive to KRA-533-mediated cell growth suppression than those without KRAS mutation
same,"apoptosis and autophagy in tumor tissues (IHC active caspase-3, LC3-II)",[2]; [9],induced apoptosis and autophagy in tumor tissues in a dose-dependent manner
same,tumor growth,[2]; [9],suppressed tumor growth in a dose-dependent manner
same,"blood cells (WBC, RBC and PLT), BUN and ALT/AST",[2]; 7.5˜30 mg/kg/d,in the normal range
same,body weight,[2]; 7.5˜30 mg/kg/d,no weight loss
same,tolerability,[2]; 7.5˜30 mg/kg/d,well tolerated without significant toxicity
same,"histopathology of normal tissues (brain, heart, lung, liver, spleen, kidney and intestine)",[2]; 7.5˜30 mg/kg/day,no evidence of normal tissue toxicities
same,active KRAS in tumor tissues (Raf-1-RBD pull-down),[2]; tumor tissue lysates after 28 days,accumulation of active KRAS in tumor tissues
same,cell proliferation,[3]; various NSCLC cells,suppression of cell proliferation
same,"sensitivity of cell proliferation, KRAS mutant cells versus H292","[3]; A549, H157, Calu-1 vs H292",more sensitive to KRA-533 than H292 cells without KRAS mutation
same,activity of exogenous GFP-tagged WT KRAS (GFP-KRAS-GTP),[4],activated exogenous WT and S17A
same,MTD,"[5]; mouse, in vivo, ip, Nu/Nu nude mice",300 to 400 mg/kg
same,Alanine transaminase (ALT),[5]; single dose of 400 mg/kg,significantly elevated
same,aspartate transaminase (AST),[5]; single dose of 400 mg/kg,significantly elevated
same,blood urea nitrogen (BUN),[5]; single dose of 400 mg/kg,significantly elevated
same,death of mice (time),[5]; single dose of 400 mg/kg,8 days
same,"weight loss or other toxicities (hematologic, liver and kidney function)",[5]; single dose of 150 or 300 mg/kg i.p.,did not cause weight loss or other toxicities
same,"activity against human lung cancer cells (cytotoxicity, SRB assay)",[6],the most potent activity against human lung cancer cells
same,deaths in four months before euthanization,[7]; 20 mg/kg/d i.p.,1 death out of 8 mice
same,weight loss and normal tissue toxicity,[7]; 20 mg/kg/d i.p.,Slight weight loss but no significant normal tissue toxicity
same,tumor burden and multiplicity in the lung,"[7]; 20 mg/kg/d i.p. from 10 weeks post AdeCre, four months",significant reduction of tumor burden and multiplicity in the lung
same,survival,"[7]; 20 mg/kg/d i.p., compared with the control group",prolonged survival
same,"melting temperature (Tm) / binding, KRAS WT",[8],Dose dependent increases in melting temperature (Tm); also recorded: could bind
